Data from the supplement of paper PMC10307832.

How the values were obtained:
Experiment in all cases: relative viability (nuclei count vs DMSO), 5 days (fraction); higher = more cells survive
Erlotinib + Pemetrexed = compound: C#Cc1cccc(Nc2ncnc3cc(OCCOC)c(OCCOC)cc23)c1 [Erlotinib] + Nc1nc2[nH]cc(CCc3ccc(C(=O)N[C@@H](CCC(=O)O)C(=O)O)cc3)c2c(=O)[nH]1 [Pemetrexed] (partner 0.2 µM)
Method in brief: (§1)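 Medians of duplicate plates are given as relative viability. That measure is the nuclei count in treated wells divided by the count in vehicle wells. Counts were taken on 4× images of lung cancer cell lines in 1536-well plates, 5 days after pin-tool dosing the day after seeding with one drug alone or a fixed anchor-drug dose plus five library-drug doses (not always all listed) in √10 steps.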

AT9283 + Pictilisib = compound: O=C(Nc1c[nH]nc1-c1nc2ccc(CN3CCOCC3)cc2[nH]1)NC1CC1 [AT9283] + CS(=O)(=O)N1CCN(Cc2cc3nc(-c4cccc5[nH]ncc45)nc(N4CCOCC4)c3s2)CC1 [Pictilisib] (partner 1 µM)
Method in brief: as §1

AT9283 + Bortezomib = compound: O=C(Nc1c[nH]nc1-c1nc2ccc(CN3CCOCC3)cc2[nH]1)NC1CC1 [AT9283] + CC(C)C[C@H](NC(=O)[C@H](Cc1ccccc1)NC(=O)c1cnccn1)B(O)O [Bortezomib] (partner 0.002 µM)
Method in brief: as §1

AT9283 + Decitabine = compound: O=C(Nc1c[nH]nc1-c1nc2ccc(CN3CCOCC3)cc2[nH]1)NC1CC1 [AT9283] + Nc1ncn([C@H]2C[C@H](O)[C@@H](CO)O2)c(=O)n1 [Decitabine] (partner 2 µM)
Method in brief: as §1

AT9283 + Luminespib = compound: O=C(Nc1c[nH]nc1-c1nc2ccc(CN3CCOCC3)cc2[nH]1)NC1CC1 [AT9283] + CCNC(=O)c1noc(-c2cc(C(C)C)c(O)cc2O)c1-c1ccc(CN2CCOCC2)cc1 [Luminespib] (partner 0.01 µM)
Method in brief: as §1

Row | Cell Line | relative viability (Erlotinib + Pemetrexed; first compound 0.02 µM) | relative viability (Erlotinib + Pemetrexed; first compound 0.2 µM) | relative viability (Erlotinib + Pemetrexed; first compound 0.6325 µM) | relative viability (Erlotinib + Pemetrexed; first compound 2 µM) | relative viability (AT9283 + Pictilisib; first compound 0.003 µM) | relative viability (AT9283 + Pictilisib; first compound 0.03 µM) | relative viability (AT9283 + Pictilisib; first compound 0.09487 µM) | relative viability (AT9283 + Pictilisib; first compound 0.3 µM) | relative viability (AT9283 + Bortezomib; first compound 0.003 µM) | relative viability (AT9283 + Bortezomib; first compound 0.03 µM) | relative viability (AT9283 + Bortezomib; first compound 0.09487 µM) | relative viability (AT9283 + Bortezomib; first compound 0.3 µM) | relative viability (AT9283 + Decitabine; first compound 0.003 µM) | relative viability (AT9283 + Decitabine; first compound 0.03 µM) | relative viability (AT9283 + Decitabine; first compound 0.09487 µM) | relative viability (AT9283 + Decitabine; first compound 0.3 µM) | relative viability (AT9283 + Luminespib; first compound 0.003 µM) | relative viability (AT9283 + Luminespib; first compound 0.03 µM) | relative viability (AT9283 + Luminespib; first compound 0.09487 µM) | relative viability (AT9283 + Luminespib; first compound 0.3 µM)
1 | NCI-H596 | 0.609 | 0.455 | 0.489 | 0.457 | 0.391 | 0.415 | 0.412 | 0.373 | 0.999 | 1.14 | 0.947 | 0.772 | 1.07 | 0.946 | 0.934 | 0.783 | 1.04 | 1.08 | 0.819 | 0.725
2 | NCI-H2009 | 1.07 | 0.999 | 1.01 | 1.04 | 0.774 | 0.462 | 0.239 | 0.0896 | 1.01 | 0.639 | 0.363 | 0.233 | 0.378 | 0.358 | 0.225 | 0.222 | 1.04 | 0.978 | 0.736 | 0.325
3 | NCI-H460 | 0.0628 | 0.0521 | 0.0611 | 0.0588 | 0.305 | 0.302 | 0.0565 | 0.0907 | 0.922 | 0.905 | 0.257 | 0.032 | 0.434 | 0.466 | 0.24 | 0.078 | 0.0366 | 0.041 | 0.0309 | 0.0299
4 | UMC-11 | 0.759 | 0.746 | 0.851 | 0.668 | 0.805 | 0.114 | 0.111 | 0.191 | 0.465 | 0.108 | 0.0924 | 0.129 | 0.57 | 0.217 | 0.261 | 0.201 | 1.05 | 0.161 | 0.16 | 0.165
5 | NCI-H1437 | 0.33 | 0.33 | 0.395 | 0.27 | 0.439 | 0.468 | 0.12 | 0.126 | 0.496 | 0.398 | 0.175 | 0.164 | 0.47 | 0.599 | 0.426 | 0.306 | 1.26 | 1.12 | 0.681 | 0.344
6 | NCI-H2087 | 0.753 | 0.704 | 0.728 | 0.701 | 0.677 | 0.413 | 0.21 | 0.208 | 0.753 | 0.626 | 0.447 | 0.23 | 0.238 | 0.214 | 0.182 | 0.0988 | 0.163 | 0.17 | 0.15 | 0.139
7 | LU99A | 0.166 | 0.196 | 0.16 | 0.151 | 0.293 | 0.185 | 0.152 | 0.164 | 1.04 | 0.463 | 0.162 | 0.229 | 0.868 | 0.404 | 0.195 | 0.226 | 0.24 | 0.301 | 0.225 | 0.221
8 | NCI-H1993 | 0.63 | 0.466 | 0.544 | 0.564 | 0.841 | 0.748 | 0.934 | 0.661 | 1.31 | 0.997 | 0.576 | 0.504 | 0.596 | 0.453 | 0.442 | 0.456 | 0.977 | 0.521 | 0.523 | 0.45
9 | NCI-H2347 | 0.454 | 0.401 | 0.439 | 0.409 | 0.726 | 1.23 | 0.568 | 0.385 | 0.933 | 1.01 | 1 | 0.539 | 0.624 | 0.61 | 0.471 | 0.372 | 0.364 | 0.543 | 0.43 | 0.231
10 | NCI-H1734 | 0.45 | 0.39 | 0.4 | 0.397 | 0.406 | 0.271 | 0.299 | 0.221 | 0.904 | 0.349 | 0.296 | 0.223 | 0.54 | 0.324 | 0.261 | 0.254 | 0.221 | 0.145 | 0.165 | 0.18
11 | HCC-44 | 0.682 | 0.724 | 0.662 | 0.639 | 0.598 | 0.627 | 0.151 | 0.123 | 0.814 | 0.833 | 0.548 | 0.399 | 0.702 | 0.969 | 0.749 | 0.871 | 1.04 | 1.19 | 0.426 | 0.319
12 | LCLC-97TM1 | 0.22 | 0.201 | 0.176 | 0.155 | 0.171 | 0.141 | 0.0991 | 0.114 | 0.49 | 0.09 | 0.139 | 0.0748 | 0.199 | 0.175 | 0.104 | 0.089 | 0.662 | 0.634 | 0.137 | 0.157
13 | HOP-62 | 0.285 | 0.332 | 0.255 | 0.312 | 0.645 | 0.351 | 0.19 | 0.146 | 0.593 | 0.651 | 0.68 | 0.158 | 0.212 | 0.217 | 0.152 | 0.165 | 0.916 | 0.783 | 0.279 | 0.292
14 | NCI-H2405 | 0.893 | 1.1 | 1.06 | 1.09 | 0.463 | 0.384 | 0.254 | 0.145 | 0.875 | 0.967 | 0.721 | 0.33 | 0.732 | 0.725 | 0.381 | 0.24 | 0.662 | 0.625 | 0.352 | 0.331
15 | RERF-LC-KJ | 0.461 | 0.457 | 0.444 | 0.44 | 0.627 | 0.24 | 0.171 | 0.164 | 1.02 | 0.793 | 0.526 | 0.296 | 0.746 | 0.477 | 0.282 | 0.224 | 1.24 | 0.792 | 0.362 | 0.28
